Where “and” joins values, the source holds several entries; their conditions need not be identical. Equal values may be shown once. Entries after “also recorded” stand apart in the source; their conditions may differ. Where a name gives a salt, the structure may show the parent alone.
Legend:
[1] = test system: M. tuberculosis isolate 571/573-BAL; assay: Planting in lecithin at low inocula, BACTEC 12B growth curves; format: cell-based, Mycobacterium tuberculosis; details: CB-18 (17 μg/ml) combined with P/caz; inocula 165±54, 33±11 and 8±3 cfu
Source text: In this experiment the 571/573-BAL isolate was cultivated on 7H11-selective media, serially diluted in NALC/citrate to approximately 1,000×. In an attempt to examine how the inoculum impacted the results of this assay three different stocks were manufactured, one series in buffer and one series in CB-18. […] The planting solutions were manufactured by mixing these three stocks 1:1 with either buffer or a buffered solution of lecithin (Sigma, St. Louis, Mo.; Cat.#: P 5394 (7.5% lecithin was made up as a 100× concentrate in 100% ethanol (3 grams in 40 mls) and diluted in the Tris buffer of Example 1 immediately prior to use)). The final dilutions of three different planting solutions were approximately 5000×, 25,000×, and 100,000×. The final concentration of CB-18 and lecithin in the appropriate planting solutions was approximately 0.5 mM. […] The final concentration of both lecithin and CB-18 during incubation was approximately 17 μg/ml.
Aliquots of the three stocks (i.e., 2,500×, 12,500× and 50,000×) were also taken for quantitative culture by plating on 7H10 plates (Becton Dickinson, Cockeysville, Md.). […] FIG. 5A presents the 5,000× series planted in either buffer or buffer containing lecithin, and FIG. 5B presents the 5,000× series planted in CB-18 or CB-18 combined with lecithin. FIG. 5C presents the 25,000× series planted in either buffer or buffer containing lecithin, and FIG. 5D presents the 25,000× series planted in CB-18 or CB-18 combined with lecithin. FIG. 5E presents the 100,000× series planted in either buffer or buffer containing lecithin, and FIG. 5F presents the 100,000× series planted in CB-18 or CB-18 combined with lecithin.

[2] = test system: M. tuberculosis isolates ATCC 27294 and 571/573-BAL; assay: CB-18 and TMA-18 comparison, BACTEC 12B growth curves; format: cell-based, Mycobacterium tuberculosis
Method: If the mechanism of CB-18's action was similar to that of the quaternary salts (i.e., generally deleterious), then some delay would be anticipated. For example, if the CB-18 effect was a consequence of the surface active property of the detergent, then disruption of cellular function would not only have nonspecific long term consequences, but would also be independent of the isolate. In an effort to examine the similarity in the mechanism, CB-18 was assayed in parallel with trimethyloctadecylammonium bromide (TMA-18 (Aldrich, Milwaukee, Wis., Cat.# 35,924-6): made as a 100× stock in 1:1, water:isopropanol similar to that described for CB-18 in Example 1). The experimental design is outlined in FIG. 6.
In this experiment both ATCC 27294 and 571/573-BAL were cultivated on 7H11-selective media, and then serially diluted in NALC/citrate to 10,000×. The planting solution (i.e., the final dilution (50,000×)) was manufactured by diluting into either buffer, 0.5 mM CB-18, or 0.1 mM TMA-18 (all concentrations represent the final detergent concentration in the planting solution). […] The final concentration of CB-18 during incubation was approximately 17 μg/ml. The final concentration of TMA-18 during incubation was approximately 3.4 μg/ml. […] FIGS. 7A–7C show one experiment wherein ATCC 27294 cells were planted in the different solutions described above, and FIGS. 8A–8C show a parallel experiment wherein 571/573-BAL cells were planted in the same series.

[3] = test system: M. tuberculosis complex isolates ATCC 27294 and 571/573-BAL; assay: CB-18 titration, BACTEC 12B growth curves; format: cell-based, Mycobacterium tuberculosis; details: for CB-18 concentration at which growth was completely shut down / CB-18 concentration at which growth was impacted to a minor degree: absence of antibiotics
[4] = test system: M. avium complex isolates ATCC 25291 and 802-BAL; assay: CB-18 titration, BACTEC 12B growth curves; format: cell-based; details: MAC isolate 802-BAL; CB-18 alone (7–27 μg/ml tested)
[5] = test system: M. tuberculosis isolate 571/573-BAL; assay: Detergent screen for induced susceptibility, BACTEC 12B growth curves; format: cell-based, Mycobacterium tuberculosis; details: for effect on growth characteristics: 571/573-BAL
[6] = test system: M. tuberculosis isolates ATCC 27294 and 571/573-BAL; assay: CB-18 vs. EDTA, BACTEC 12B growth curves; format: cell-based, Mycobacterium tuberculosis
[7] = test system: M. tuberculosis isolates ATCC 27294 and 571/573-BAL; assay: Mycobacterial susceptibility testing (proportion method criteria) with CB-18 and P-cax; format: cell-based, Mycobacterium tuberculosis
[8] = test system: M. tuberculosis isolates ATCC 27294 and 571/573-BAL; assay: Processing in CB-18 vs. planting in CB-18, BACTEC 12B growth curves
[9] = test system: M. tuberculosis isolates (Table 8); assay: MTB isolates vs. antibiotic screen in the presence and absence of CB-18; details: CB-18 17 μg/ml
[10] = ATCC 27294, presence of antibiotics

With CCCCCCCCCCCCCCCCCC[N+](C)(C)CCCC(=O)[O-] [CB-18, N-(3-carboxypropyl)-N,N-dimethyl-1-octadecanaminium, inner salt] the “culture result of replicate bottles” value [1] was “negative”, the effect on growth ([2]; 571/573-BAL, 17 μg/ml CB-18, R.F., PANTA and P/cax) was “delays in all conditions became obvious” and the effect on growth ([2]; 571/573-BAL, 17 μg/ml CB-18 with P/cax) was “dramatic delay”. The effect on growth ([2]; ATCC 27294, 17 μg/ml CB-18 in PANTA alone) was “minor delays”, the effect on growth ([2]; ATCC 27294, 17 μg/ml CB-18 with P/cax) was “significant delays” and the “CB-18 concentration at which the isolate was viable” value ([3]; 571/573-BAL, CB-18 alone) was 13 µg/mL. The “CB-18 concentration at which growth was completely shut down” value ([3]; 571/573-BAL) was 27 µg/mL, the “CB-18 concentration at which growth was impacted to a minor degree” value ([3]; 571/573-BAL) was 13 µg/mL and the “CB-18 concentration at which growth was absent” value ([3]; 571/573-BAL, presence of antibiotics) was 13 µg/mL. The “CB-18 concentration at which growth was completely shut down” value ([3]; ATCC 27294) was 54 µg/mL, the “CB-18 concentration at which growth was impacted to a minor degree” value ([3]; ATCC 27294) was 27 µg/mL and the “CB-18 concentration at which growth was affected to a minor degree” value [3, 10] was 13 µg/mL. For the same compound, the “CB-18 concentration at which growth was nonexistent” value [3, 10] was 27 µg/mL, the “CB-18 concentration causing no alteration in growth” value ([3]; ATCC 27294 and 571/573-BAL, absence of antibiotics (FIGS. 10A and 11A)) was 3 to 7 µg/mL and the “CB-18 concentration at which viability falls off” value [4] was “not affected at the test concentrations; also recorded: Viability is unaffected at levels tested”. For the same compound, the “effect on growth characteristics” value ([5]; CB-18 (17 μg/ml) combined with antibiotics (PANTA, P/cax)) was “synergistically deleterious”, the “effect on growth characteristics” value ([5]; CB-18 alone (17 μg/ml, R.F.)) was “had an impact on the growth characteristics” and the “CB-18 effect in the methods of the invention” value ([5]; carboxybetaines tested) was “show the CB-18 effect”. The effect on growth ([6]; 571/573-BAL, CB-18 alone 17 μg/ml) was “suppressed”, the effect on growth ([6]; ATCC 27294, CB-18 alone 17 μg/ml, absence of MgCl2) was “unaffected” and the effect on growth ([6]; ATCC 27294 and 571/573-BAL, CB-18 17 μg/ml with P/cax) was “synergistically deleterious”. The “CB-18 concentration at which the isolate would have been reported as susceptible” value (shortened to “CB-18 concentration … as susceptible”) ([7]; 571/573-BAL, 10×-dilution (111,000 ± 17,900 cfu), in the presence of P-cax) was 60 µg/mL and 30 µg/mL, the “CB-18 concentration … as susceptible” value ([7]; 571/573-BAL, 100×-dilution (11,100 ± 1,790 cfu), in the presence of P-cax) was 15 µg/mL and the “CB-18 concentration … as susceptible” value ([7]; ATCC 27294, 10×-dilution (62,800 ± 5,700 cfu), in the presence of P-cax) was 60 µg/mL. The “CB-18 concentration at which the isolate would have been deemed susceptible” value ([7]; ATCC 27294, 100×-dilution (6,280 ± 570 cfu), in the presence of P-cax) was 30 µg/mL, the growth of isolates ([7]; both isolates, high input (>1×10^5 cfu), 30 μg/ml CB-18) was “grew unimpeded during the first week” and the “effect on growth characteristics” value ([8]; 571/573-BAL, 90 minute exposure to CB-18 at 383 μg/ml, planted in buffer) was “no apparent effect on growth characteristics”. The “CB-18 concentration in the culture bottle at which growth was unimpeded” value ([8]; 571/573-BAL, processed in CB-18, then diluted) was less than 1 µg/mL, the “impact on growth characteristics” value ([8]; ATCC 27294, processed in CB-18 (383 μg/ml) and/or planted in CB-18 (17 μg/ml final), PANTA or P/caz) was “generally unaffected” and the post antibiotic effect ([8]; cells processed in CB-18 but planted in buffer) was “no post antibiotic effect; also recorded: no “post antibiotic effect””. For the same compound, the “CB-18 induced sensitivity to antibiotics tested” value (from here on “CB-18 induced sensitivity”) ([9]; 040-TBR) was “affected by CB-18 to some degree; also recorded: Minor CB-18 induced sensitivity to most antibiotics”, the “effect of CB-18 on cax sensitivity (degree of exacerbation)” value ([9]; 040-TBR, P/cax) was “significantly affected by the presence of CB-18; also recorded: tested, however, cax sensitivity significantly” and the “CB-18 induced sensitivity” value ([9]; 52-96-BOL) was “affected by CB-18 to some degree; also recorded: Minor CB-18 induced sensitivity to most antibiotics”. The “effect of CB-18 on cax sensitivity (degree of exacerbation)” value ([9]; 52-96-BOL, P/cax) was “significantly affected by the presence of CB-18; also recorded: tested, however, cax sensitivity significantly”, the “CB-18 induced sensitivity” value ([9]; 57-96-BOL (MDR)) was “exacerbated in the presence of CB-18; also recorded: moderate CB-18 induced sensitivity to most” and the “effect of CB-18 on cax sensitivity” value ([9]; 061-TBR, P/cax) was “exacerbated by CB-18. Strain is INH resistant”. The “CB-18 induced sensitivity” value ([9]; 512-JHH) was “Minor CB-18 induced sensitivity to most antibiotics”, the “CB-18 induced sensitivity” value ([9]; 535-BAL) was “unaffected by CB-18 at this concentration” and the “effect of CB-18 on cax sensitivity” value ([9]; 535-BAL, P/cax) was “cax sensitivity was independent of CB-18”. The “CB-18 induced sensitivity” value ([9]; 538-JHH) was “Minor CB-18 induced sensitivity to most antibiotics”, the “CB-18 induced sensitivity” value ([9]; 571-BAL) was “remarkable induction of susceptibility for all drugs tested; also recorded: Dramatic CB-18 induced sensitivity” and the “CB-18 induced sensitivity” value ([9]; 573-BAL) was “remarkable induction of susceptibility for all drugs tested; also recorded: Dramatic CB-18 induced sensitivity”. The “effect of CB-18 on cax sensitivity” value ([9]; 896-BAL, P/cax) was “slightly exacerbated by CB-18. Strain is multi”, the “effect of CB-18 on cax sensitivity” value ([9]; ATCC 27294, P/cax (ceftriaxone 8 μg/ml)) was “minor delays; also recorded: exacerbated by CB-18” and the “CB-18 induced sensitivity” value ([9]; ATCC 27294, PANTA, P/caz, P/cfp, P/cax, P/cft) was “little or no difference; also recorded: Minimal, if any, CB-18 induced sensitivity to”.

Reference: patent US7067500B2, “Betaines as adjuvants to susceptibility testing and antimicrobial therapy” (priority 1997, dated 2006)
